Reference: PubChem BioAssay (NCI)
“And” between values parts separate entries of the source, which are not always exact repeats. Equal entries are not always repeated.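 Compound exposure: 48 hours, 5 concentrations, 96-well plates. GI50: concentration for 50% inhibition of growth. TGI: total growth inhibition.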

Columns and labels:
Assay in all cases: inhibition of tumour cell growth, NCI panel, 48 h
T-47D breast = tested on: T-47D breast
A549 NSCLC = tested on: A549 NSCLC
NCI-H522 lung = tested on: NCI-H522 lung
SN12C renal = tested on: SN12C renal
ACHN renal = tested on: ACHN renal
SK-MEL-5 melanoma = tested on: SK-MEL-5 melanoma
RXF 393 renal = tested on: RXF 393 renal
UACC-62 melanoma = tested on: UACC-62 melanoma

Row | SMILES | GI50 (T-47D breast) | TGI (T-47D breast) | GI50 (A549 NSCLC) [µM] | TGI (A549 NSCLC) | GI50 (NCI-H522 lung) [µM] | TGI (NCI-H522 lung) | GI50 (SN12C renal) | TGI (SN12C renal) | GI50 (ACHN renal) [µM] | TGI (ACHN renal) | GI50 (SK-MEL-5 melanoma) [µM] | TGI (SK-MEL-5 melanoma) | GI50 (RXF 393 renal) [µM] | TGI (RXF 393 renal) | GI50 (UACC-62 melanoma) [µM] | TGI (UACC-62 melanoma)
1 | CCCCCSc1ccc2nc(NC(=O)OCC)sc2c1 | 0.583 µM | > 100 µM | 2.37 | > 100 µM | 0.245 | 0.865 µM | 0.959 µM | > 100 µM | 0.908 | > 100 µM | 0.658 | > 100 µM | 1.03 | 9.19 µM | – | –
2 | COc1ccc(C2c3ccc4ccccc4c3Oc3ncn(CCCn4ccnc4)c(=N)c32)cc1OC (configuration not stated) | 2.39 µM | 6.25 µM | 3.75 | 13.8 µM | 1.87 | 4.36 µM | 3.64 µM | 17.7 µM | 4.42 | 16.2 µM | 1.66 | 3.11 µM | 1.78 | 4.64 µM | 1.9 | 3.74 µM
3 | COC(=O)c1c2c(c(C)[n+]([O-])c1C)C(=O)C(NCc1ccccc1)=CC2=O | 1.88 µM | 5.35 µM | 2.47 | 7.94 µM | 2.45 | 7.62 µM | 2.13 µM | 5.48 µM | 2.73 | 10.1 µM | 1.23 | 2.5 µM | 2.48 | 7.88 µM | 1.8 | 3.56 µM
4 | CC(=O)OCC1OC(SC2=N/C(=C\c3ccc(Br)s3)C(=O)N2c2ccccc2)C(OC(C)=O)C(OC(C)=O)C1OC(C)=O (configuration not stated) | 96.5 µM and 27.8 µM | > 100 µM | – | – | – | > 100 µM and 94.3 µM | – | > 100 µM | – | > 100 µM | – | > 100 µM | – | 57.2 µM and > 100 µM | – | > 100 µM
5 | CC(=O)O[C@@H]1c2c(c3c(=O)c4cccc(O)c4c(=O)c=3c2=[N+]=[N-])[C@H](OC(C)=O)[C@@H](OC(C)=O)[C@]1(C)O | 0.132 µM and 0.317 µM | 0.649 µM and 1.39 µM | 0.0518 | 1.16 µM and 0.228 µM | 0.0693 | 0.776 µM and 0.201 µM | 0.236 µM and 0.0851 µM | 0.815 µM and 0.288 µM | 0.161 | 0.374 µM and 0.3 µM | 0.112 | 1.18 µM and 0.273 µM | 0.147 | 1.28 µM and 0.296 µM | 0.297 | 1.35 µM and 1.02 µM
6 | O=C1CN=C(c2ccc[nH]2)c2cc(Cl)ccc2N1 | > 100 µM | > 100 µM | > 100 | > 100 µM | 25.2 | > 100 µM | > 100 µM | > 100 µM | > 100 | > 100 µM | > 100 | > 100 µM | > 100 | > 100 µM | 95 | > 100 µM
7 | CCCCN(CCCC)P(=O)(Oc1ccccc1)Oc1ccccc1 | 7.46 µM | 33.1 µM | 5.06 | 19.6 µM | 3.96 | 18.2 µM | 5.53 µM | 19.7 µM | 5.78 | 19.3 µM | 11.5 | 23.7 µM | 1.85 | 5.97 µM | 11.9 | 25.7 µM
8 | CCCCCCCCCCCCCCCCn1cc[n+](C)c1 | 0.398 µM | – | 0.326 | 1.6 µM | – | – | 0.667 µM | 1.89 µM | 0.613 | 2.01 µM | – | – | 0.252 | 0.907 µM | 0.538 | 1.88 µM
9 | CN1CCc2ccccc2C1Cc1ccccc1NC(=O)c1sc2ccccc2c1Cl (configuration not stated) | – | > 100 µM | – | > 100 µM | – | > 100 µM | – | > 100 µM | – | > 100 µM | – | > 100 µM | – | > 100 µM | – | > 100 µM
10 | COc1cc(OC)c(C(=O)/C=C/c2ccc(C#N)cc2)c(OC)c1 | 1.21 µM | 7.81 µM | 1.85 | > 50 µM | 1.04 | 2.92 µM | 1.82 µM | 7.91 µM | 1.29 | 4.74 µM | 1.97 | 6.95 µM | 1.39 | 4.23 µM | 1.45 | 5.78 µM
11 | Oc1nc(N2CCOCC2)sc1/C=C1\C=Nc2ccccc21 | > 100 µM | > 100 µM | > 100 | > 100 µM | > 100 | > 100 µM | > 100 µM | > 100 µM | > 100 | > 100 µM | > 100 | > 100 µM | > 100 | > 100 µM | > 100 | > 100 µM
12 | Cc1ccc(-c2cc(C(=O)Nc3ccc(S(=O)(=O)N4CCCCC4)cc3)[nH]n2)c(O)c1 | > 100 µM | > 100 µM | > 100 | > 100 µM | > 100 | > 100 µM | > 100 µM | > 100 µM | > 100 | > 100 µM | > 100 | > 100 µM | > 100 | > 100 µM | > 100 | > 100 µM
13 | Cc1[nH]c2ccccc2c1CO | 29.3 µM | > 100 µM | 38.3 | > 100 µM | 12.8 | 28.9 µM | 15.8 µM | 32.1 µM | 22.8 | 88.8 µM | 18.1 | 36.9 µM | 20.2 | 47.6 µM | 17.2 | 37.4 µM
14 | O=C(Nc1ccc(I)cc1F)c1cc(Br)ccc1O | 0.353 µM | 2.54 µM | 2.81 | > 100 µM | 0.348 | 4.44 µM | 0.416 µM | 4.09 µM | 0.592 | 11.4 µM | 0.251 | 0.714 µM | 0.778 | 3.6 µM | 0.25 | 0.812 µM
15 | CCOC(=O)c1c(NN2CCN(CC(F)(F)F)CC2)oc(/C=C2\C=Nc3ncccc32)c1O | 5.08 µM | 34.8 µM | 5.2 | 49.1 µM | 1.05 | 11.1 µM | 4.26 µM | 42.6 µM | 5.85 | 77.4 µM | 2.55 | 10.6 µM | 1.2 | 4.19 µM | 4.83 | 15.1 µM
